Data published in US12595250B2, “Substituted pyrimidine compounds as multifunctional radical quenchers and their uses” (ARIZONA BOARD OF REGENTS ON BEHALF OF ARIZONA STATE …, priority 2016, dated 2026).
One block for each molecule: values may come before it.

Experiments:
FRDA lymphocytes [1] = assay: Cellular ATP concentration assay (luciferin-luciferase); assay type: cell-based, Human; conditions: for activity at 1 µM / activity at 5 µM / activity at 20 µM: Homo sapiens, Lymphocyte, incubation 48 h, read-out: Total ATP level (% control) FRDA lymphocytes
[2] = In vitro microsomal stability assay; assay type: in vitro ADME; conditions: pH 7.4, bovine liver microsomes 1 mg/mL, 25 μM compound, 37° C., NADPH, read-out: Recovery (%) of compound after reaction with activated microsomes
Procedure: Liver tissues were diced into small pieces and then washed with isotonic sucrose buffer (0.25 M sucrose, 10 mM Tris-HCl, 0.5 mM EDTA, pH 7.8). The diced tissue was passed through a precooled meat grinder and mixed with three-fold ice cold sucrose buffer supplemented with a mixture of protease inhibitors. The suspension was homogenized in a Waring blender for 25 s at high speed. At this stage, the pH of the suspension was adjusted to 7.4 with 1 M Tris base. The homogenate was centrifuged for 20 min at 1200×g to remove cell debris. The supernatant suspension was homogenized in a tight fitting Teflon-glass Potter-Elvehjem homogenizer and then centrifuged twice at 10,000×g for 20 min, collecting the supernatant each time to remove mitochondria. The floating fat layer was carefully removed by filtering the supernatant through layers of cheesecloth. The supernatant was centrifuged at 150,000×g for 30 min (Beckman-Coulter ultracentrifuge, XL-100K-01, SW 55 Ti rotor). The pellet (microsomal fraction) was suspended in 0.25 M sucrose buffer containing 10 mM Tris-HCl, pH 7.4, with 20% (v/v) glycerol, and centrifuged once more at 150,000×g. The pellet was resuspended in sucrose buffer with 20% (v/v) glycerol. The protein concentration after resuspension was approximately 20 mg/mL, as determined by BCA protein assay (Pierce Chemical) using bovine serum albumin as a standard. Aliquots of microsomal suspensions were stored at −80° C.
In vitro metabolic stability was determined in bovine liver microsomes at a protein concentration of 1 mg/mL in 50 mM phosphate buffer mixture, pH 7.4, containing 5 mM MgCl2 in a final incubation volume of 0.5 mL. Each test compound was added to a final concentration of 25 μM. This mixture was pre-warmed to 37° C. prior to starting the reaction by the addition of β-NADPH to 1 mM final concentration. After incubation for 30 min at 37° C., the reaction was quenched by the addition of 1 mL of propanol, vortexed for 2 min and centrifuged at 15,000×g for 10 min to pellet the precipitated protein. The resulting supernatant was pipetted out and then concentrated under diminished pressure. A parallel incubation of the test compound with deactivated microsomes (quenched immediately with propanol) lacking β-NADPH served as a control and was run for each test agent to detect microsome-independent degradation. The sample was reconstituted in 130 μL MeOH and centrifuged again at 15,000×g for 3 min. The supernatant was removed and 4 μM fluorene was added as an internal standard before HPLC analysis. HPLC analyses were performed on a Zorbax SB-Phenyl reversed phase analytical (150×4.6 mm, 5 m) HPLC column using a mobile phase consisting of MeOH/H2O. A linear gradient of (50:50 MeOH/H2O→100:0 MeOH/H2O) was employed over a period of 14 min at a flow rate of 1 mL/min. Metabolic stability was expressed as percent of control remaining. The experiments were carried out in duplicate to verify the results.

FRDA lymphocytes [3] = assay: Lipid peroxidation assay (C11-BODIPY 581/591, FACS); assay type: cell-based, Human; conditions: 5 mM DEM; for Suppression of lipid peroxidation, comparison of regioisomers (in words, FIG. 2): 0.1 μM (low concentration)
Procedure: The bar graph represents the percentage of the median mean fluorescence intensity of C11-BODIPY-green fluorescence relative to a treated control is shown. Data are expressed as the mean±SEM (n=3).
Human mitochondrial disease cell lines, Friedreich's ataxia lymphocytes (GM15850), and Leigh's syndrome lymphocytes (GM13740) were obtained from Coriell Cell Repositories (Camden, NJ). Lymphocytes were cultured in RPMI-1640 medium (Gibco, Life Technologies, Grand Island, NY) with 15% fetal calf serum, 2 mM glutamine (HyClone, South Logan, UT) and 1% penicillin-streptomycin antibiotic supplement (Cellgro, Manassas, VA). Cells were passaged every other day to maintain them in log phase growth and kept at a nominal concentration of 5-10×10^5 cell/mL. A CoQ10 deficient lymphocyte cell line (GM17932) was obtained from Coriell Cell Repositories. […]
Lipid peroxidation was measured by a quantitative FACS assay using the oxidation-sensitive fatty acid probe C11-BODIPY^581/591 (Molecular Probe) as described in art (Goldschmidt, R., et al. Bioorg. Med. Chem. 2013, 21, 969; Khdour, 0. M., et al. ACS Med. Chem. Lett. 2013, 4, 724; and Arce, P. M., et al. Bioorg. Med. Chem. 2012, 20, 5188). […] Cells were resuspended in phosphate buffered saline and were analyzed immediately by FACS (C6 Accuri, BD Biosciences, San Jose, CA), using a 488 nm excitation laser and the FL1-H channel 530±15 nm emission filter. The generation of lipid peroxide was detected as a result of the oxidation of the polyunsaturated butadienyl portion of the dye, resulting in a shift of the fluorescence emission peak from red to green. In each analysis, 10,000 events were recorded after cell debris were electronically gated out. […] Results were expressed as a percentage of the median mean fluorescence intensity of C11-BODIPY-green relative to the treated control (DEM).

FRDA lymphocytes [4] = assay: Reactive oxygen species (ROS) assay (DCFH-DA, FACS); assay type: cell-based, Human; conditions: high concentration, 5 mM DEM
Procedure: The cells were stained with 2, 7-dichlorodihydrofluorescein diacetate (DCFH-DA) for 15 minutes prior to analysis. The samples were analyzed immediately by flow cytometry (C6 Accuri, BD Biosciences, San Jose, CA). The bar graph represents the percentage of the median mean fluorescence intensity of DCF fluorescence relative to a DEM-treated control. Data shown represent the mean±SEM of two different experiments run as duplicates.
Human mitochondrial disease cell lines, Friedreich's ataxia lymphocytes (GM15850), and Leigh's syndrome lymphocytes (GM13740) were obtained from Coriell Cell Repositories (Camden, NJ). […]
Quantitative analysis of intracellular ROS levels in FRDA lymphocytes, challenged with 5 mM diethyl maleate (DEM) in presence or absence of the test compounds, was obtained by FACS analysis using a dichlorodihydrofluorescein diacetate probe (DCFH-DA), as described in art (Goldschmidt, R., et al. Bioorg. Med Chem. 2013, 21, 969; Arce, P. M., et al. Bioorg. Med Chem. 2012, 20, 5188; Arce, P. M., et al. ACS Med Chem. Lett. 2011, 2, 608; Khdour, O. M., et al. Pharm. Res. 2011, 28, 2896; Lu, J., et al. Bioorg. Med Chem. 2010, 18, 7628; and Cai, X., et al. Bioorg. Med Chem. 2012, 20, 3584). […] The samples were analyzed immediately by flow cytometry (C6 Accuri, BD Biosciences, San Jose, CA), using a 488 nm excitation laser and the FL1-H channel 530±15 nm emission filter. […]

Compound: Cc1nc(N2CCC2)nc(OC2CCC2)c1O [Compound 1a, 2-(Azetidin-1-yl)-4-cyclobutanoxy-6-methylpyrimidin-5-ol]
activity at 1 µM (FRDA lymphocytes [1]): 100 ± 1% | activity at 5 µM (FRDA lymphocytes [1]): 98 ± 1% | activity at 20 µM (FRDA lymphocytes [1]; 20 μM): 96 ± 2%

Compound: CCCCCCCCCCCCCCc1nc(N2CCC2)nc(OC2CCC2)c1O [Compound 1b, 2-(Azetidin-1-yl)-4-cyclobutanoxy-6-tetradecylpyrimidin-5-ol]
activity at 1 µM (FRDA lymphocytes [1]): 105 ± 3% | activity at 5 µM (FRDA lymphocytes [1]): 102 ± 1% | activity at 20 µM (FRDA lymphocytes [1]; 20 μM): 94 ± 2% | recovery at 30 min, 25 μM [2]: 63 ± 8%

Compound: CCCCCCCCCCCCCCCCc1nc(N2CCC2)nc(OC2CCC2)c1O [Compound 1c, 2-(Azetidin-1-yl)-4-cyclobutoxy-6-hexadecylpyrimidin-5-ol]
activity at 1 µM (FRDA lymphocytes [1]): 100 ± 1% | activity at 5 µM (FRDA lymphocytes [1]): 114 ± 3% | activity at 20 µM (FRDA lymphocytes [1]; 20 μM): 103 ± 2% | recovery at 30 min, 25 μM [2]: 65 ± 8%

Compound: Cc1nc(OC2CCC2)nc(N2CCC2)c1O [Compound 2a, 4-(Azetidin-1-yl)-2-cyclobutanoxy-6-methylpyrimidin-5-ol]
activity at 1 µM (FRDA lymphocytes [1]): 101 ± 1% | activity at 5 µM (FRDA lymphocytes [1]): 99 ± 3% | activity at 20 µM (FRDA lymphocytes [1]; 20 μM): 96 ± 3%

Compound: CCCCCCCCCCCCCCc1nc(OC2CCC2)nc(N2CCC2)c1O [Compound 2b, 4-(Azetidin-1-yl)-2-cyclobutanoxy-6-tetradecylpyrimidin-5-ol]
activity at 1 µM (FRDA lymphocytes [1]): 109 ± 3% | activity at 5 µM (FRDA lymphocytes [1]): 105 ± 2% | activity at 20 µM (FRDA lymphocytes [1]; 20 μM): 54 ± 6% | recovery at 30 min, 25 μM [2]: 77% | Suppression of lipid peroxidation, comparison of regioisomers (in words, FIG. 2) (FRDA lymphocytes [3]): significantly more efficient than 1b

Compound: CCCCCCCCCCCCCCCCc1nc(OC2CCC2)nc(N2CCC2)c1O [Compound 2c, 4-(Azetidin-1-yl)-2-cyclobutanoxy-6-hexadecylpyrimidin-5-ol]
activity at 1 µM (FRDA lymphocytes [1]): 102 ± 2% | activity at 5 µM (FRDA lymphocytes [1]): 110 ± 4% | activity at 20 µM (FRDA lymphocytes [1]; 20 μM): 99 ± 2% | recovery at 30 min, 25 μM [2]: 63 ± 9% | Suppression of lipid peroxidation, comparison of regioisomers (in words, FIG. 2) (FRDA lymphocytes [3]): better than 1c

Compound: Cc1nc(OC2CCC2)nc(OC2CCC2)c1O [Compound 3a, 2,4-Dicyclobutanoxy-6-methylpyrimidin-5-ol]
activity at 1 µM (FRDA lymphocytes [1]): 101 ± 1% | activity at 5 µM (FRDA lymphocytes [1]): 99 ± 2% | activity at 20 µM (FRDA lymphocytes [1]; 20 μM): 97 ± 3%

Compound: CCCCCCCCCCCCCCc1nc(OC2CCC2)nc(OC2CCC2)c1O [Compound 3b, 2,4-Dicyclobutanoxy-6-tetradecylpyrimidin-5-ol]
activity at 1 µM (FRDA lymphocytes [1]): 99 ± 1% | activity at 5 µM (FRDA lymphocytes [1]): 98 ± 2% | activity at 20 µM (FRDA lymphocytes [1]; 20 μM): 94 ± 2% | recovery at 30 min, 25 μM [2]: 72 ± 3% | Suppression of lipid peroxidation (in words, FIG. 2) (FRDA lymphocytes [3]; high concentration): slightly efficient | Suppression of ROS (in words, FIG. 3) (FRDA lymphocytes [4]): appeared to be efficient

Compound: CCCCCCCCCCCCCCCCc1nc(OC2CCC2)nc(OC2CCC2)c1O [Compound 3c, 2,4-Dicyclobutanoxy-6-hexadecylpyrimidin-5-ol]
activity at 1 µM (FRDA lymphocytes [1]): 98 ± 2% | activity at 5 µM (FRDA lymphocytes [1]): 102 ± 2% | activity at 20 µM (FRDA lymphocytes [1]; 20 μM): 96 ± 2% | recovery at 30 min, 25 μM [2]: 60 ± 5%

Further lines, with some results ahead:

Inhibition of ATP production (in words) (FRDA lymphocytes [1]; 20 μM): this effect seems less obvious
Compound: Cc1nc(N2CCC2)nc(N2CCC2)c1O [Compound 4a, 2,4-Di-(azetidin-1-yl)-6-methylpyrimidin-5-ol]
activity at 1 µM (FRDA lymphocytes [1]): 101 ± 2% | activity at 5 µM (FRDA lymphocytes [1]): 101 ± 2% | activity at 20 µM (FRDA lymphocytes [1]; 20 μM): 85 ± 9%

recovery at 30 min, 25 μM [2]: 63 ± 5%
Compound: CCCCCCCCCCCCCCc1nc(N2CCC2)nc(N2CCC2)c1O [Compound 4b, 2,4-Di-(azetidin-1-yl)-6-tetradecylpyrimidin-5-ol]
activity at 1 µM (FRDA lymphocytes [1]): 86 ± 3% | activity at 5 µM (FRDA lymphocytes [1]): 46 ± 7% | activity at 20 µM (FRDA lymphocytes [1]; 20 μM): 1%

recovery at 30 min, 25 μM [2]: 62 ± 3%
Compound: CCCCCCCCCCCCCCCCc1nc(N2CCC2)nc(N2CCC2)c1O [Compound 4c, 2,4-Di-(Azetidin-1-yl)-6-hexadecylpyrimidin-5-ol]
activity at 1 µM (FRDA lymphocytes [1]): 92 ± 1% | activity at 5 µM (FRDA lymphocytes [1]): 61 ± 9% | activity at 20 µM (FRDA lymphocytes [1]; 20 μM): 1 ± 2%
